Measured values: publication PMC12557380, “Optimization of 2,8-Diaryl-1,5-naphthyridines as Plasmodium falciparum Phosphatidylinositol 4‑Kinase Inhibitors with Improved ADME Profiles and In Vivo Efficacy” (Journal of Medicinal Chemistry, 2025)
In brackets after ≈: the same amount, converted by molar mass. Like-named read-outs stand apart in the source and are kept apart here.

Tests used:
[1] = tested on: P. falciparum NF54 (PfNF54) parasites; experiment: In vitro antiplasmodial asexual blood stage activity, pLDH assay, NF54; assay type: cell-based, Plasmodium falciparum
[2] = tested on: Chinese hamster ovary cells; experiment: Cytotoxicity, MTT assay, CHO; assay type: cell-based; conditions: Cricetulus griseus, read-out: CHO IC50
[3] = tested on: P. falciparum K1 (PfK1) strain; experiment: In vitro antiplasmodial asexual blood stage activity, pLDH assay, K1; assay type: cell-based; conditions: Plasmodium falciparum
physchem [4] = conditions: 25 °C, pH 6.5, aqueous buffer, thermodynamic from solid
in vitro [5] = conditions: mouse, pH 7.4
in vitro [6] = conditions: human, pH 7.4
in vivo = conditions: male, Balb/C, mouse, po, 10 mg/kg
physchem [7] = conditions: n-octanol/phosphate buffer (1:1), pH 7.4
[8] = Plasmodium falciparum, NF54, 72 h, read-out: Pf ABS IC50 NF54
[9] = Plasmodium falciparum, NF54, read-out: PfNF54 IC50
[10] = K1, 72 h, read-out: Pf ABS IC50 K1
[11] = Plasmodium falciparum, NF54, 72 h, pLDH assay, 72 h, read-out: Pf ABS IC50 NF54
[12] = Plasmodium falciparum, NF54, mean, supplement, read-out: PfNF54 IC50
[13] = K1, mean, supplement, read-out: PfK1 IC50
[14] = K1, pLDH assay, 72 h, read-out: Pf ABS IC50 K1

SMILES	IC50 [1, 8]	IC50 [1, 9]	IC50 [2]	IC50 [3, 10]	IC50 ([3]; K1, read-out: PfK1 IC50)	IC50 [1, 11]	IC50 [1, 12]	solubility thermodynamic at 20 h (physchem [4]; aqueous solution)	other results
CCN(CC)CCCC(C)Nc1ccnc2cc(Cl)ccc12 (centres unmarked) [Chloroquine, reference compound]									IC50 ([1]; Plasmodium falciparum, NF54, 72 h, read-out: PfNF54 IC50): 11 nM
C[S+]([O-])c1cccc(-c2ccc3nccc(-c4ccnc(C(F)(F)F)c4)c3n2)c1 (centres unmarked) [Compound 11, 2-(3-Methylsulfinylphenyl)-8-[2-(trifluoromethyl)pyridin-4-yl]-1,5-naphthyridine]	42 nM	42.5 nM	14000 nM						
Cn1ccc(-c2ccc3nccc(-c4ccnc(C(F)(F)F)c4)c3n2)cc1=O [Compound 13, 1-Methyl-4-[8-[2-(trifluoromethyl)pyridin-4-yl]-1,5-naphthyridin-2-yl]pyridin-2-one]	77 nM	77.4 nM							
O=c1cc(-c2ccc3nccc(-c4ccnc(C(F)(F)F)c4)c3n2)ccn1CCO [Compound 14, 1-(2-Hydroxyethyl)-4-[8-[2-(trifluoromethyl)pyridin-4-yl]-1,5-naphthyridin-2-yl]pyridin-2-one]		131 nM		340 nM	344 nM				
NC(=O)Cc1cccc(-c2ccc3nccc(-c4ccnc(C(F)(F)F)c4)c3n2)c1 [Compound 15, 2-[3-[8-[2-(Trifluoromethyl)pyridin-4-yl]-1,5-naphthyridin-2-yl]phenyl]acetamide]	310 nM	310 nM	> 50000 nM	1600 nM	1620 nM				
O[C@H]1CN(c2cc(-c3ccc4nccc(-c5ccnc(C(F)(F)F)c5)c4n3)ccn2)C[C@@H]1O [Compound 16, (3S,4S)-1-[4-[8-[2-(Trifluoromethyl)pyridin-4-yl]-1,5-naphthyridin-2-yl]pyridin-2-yl]pyrrolidine-3,4-diol]	51 nM	50.8 nM	28000 nM	350 nM	355 nM				
CC(C)(O)C(=O)N1CC=C(c2ccc3nccc(-c4ccnc(C(F)(F)F)c4)c3n2)CC1 [Compound 17, 2-Hydroxy-2-methyl-1-[4-[8-[2-(trifluoromethyl)pyridin-4-yl]-1,5-naphthyridin-2-yl]-3,6-dihydro-2H-pyridin-1-yl]propan-1-one]	140 nM	144 nM	> 50000 nM	460 nM	463 nM				
CS(=O)(=O)c1cccc(-c2ccc3nccc(-c4cccc(S(C)(=O)=O)c4)c3n2)c1 [Compound 18, 2,8-Bis(3-methylsulfonylphenyl)-1,5-naphthyridine]						16 nM	17.2 nM		IC50 ([1]; pLDH assay, 72 h, read-out: Pf ABS IC50 NF54): 17 nM; solubility thermodynamic at 20 h (physchem [4]): < 5 µM; IC50 ([2]; one biological replicate): 37000 nM
Cn1cc(-c2ccc3nccc(-c4cccc(S(C)(=O)=O)c4)c3n2)ccc1=O [Compound 20, 1-Methyl-5-[8-(3-methylsulfonylphenyl)-1,5-naphthyridin-2-yl]pyridin-2-one]	410 nM	411 nM	34000 nM						
Cn1ccc(-c2ccc3nccc(-c4ccnc(C(C)(C)O)c4)c3n2)cc1=O [Compound 23, 4-[8-[2-(2-Hydroxypropan-2-yl)pyridin-4-yl]-1,5-naphthyridin-2-yl]-1-methylpyridin-2-one]	140 nM	144 nM	> 50000 nM	280 nM	277 nM				
Cn1ccc(-c2ccc3nccc(-c4ccc(C(C)(C)O)nc4)c3n2)cc1=O [Compound 24, 4-[8-[6-(2-Hydroxypropan-2-yl)pyridin-3-yl]-1,5-naphthyridin-2-yl]-1-methylpyridin-2-one]						36 nM	35.9 nM	175 µM (≈ 65.2 µg/mL)	CLint scaled at 1 µM (in vitro [5]; microsomes): < 45.7 mL/min/kg; CLint scaled at 1 µM (in vitro [5]; mouse liver microsomes): < 59.4 mL/min/kg; CLint scaled at 1 µM (in vitro [6]; microsomes): < 13.4 mL/min/kg; CLint scaled at 1 µM (in vitro [6]; pooled human liver microsomes): < 17.4 mL/min/kg; in vivo mouse CLb (total body clearance from whole blood, iv 3 mg/kg): 110 mL/min/kg; in vivo mouse CLu (unbound blood clearance from CLb and plasma protein binding): 379 mL/min/kg; bioavailability (in vivo): 10%; IC50 [3, 13]: 107 nM; IC50 [3, 14]: 110 nM; IC50 ([2]; one biological replicate): 12000 nM; logD at 3 h (physchem [7]): 1.98
Cn1ccc(-c2ccc3nccc(-c4ccc(C(C)(C)O)cc4)c3n2)cc1=O [Compound 25, 4-[8-[4-(2-Hydroxypropan-2-yl)phenyl]-1,5-naphthyridin-2-yl]-1-methylpyridin-2-one]						2100 nM	2160 nM	190 µM (≈ 70.6 µg/mL)	
CC(C)(O)c1ccc(-c2ccnc3ccc(-c4cccc(CC(N)=O)c4)nc23)cn1 [Compound 26, 2-[3-[8-[6-(2-Hydroxypropan-2-yl)pyridin-3-yl]-1,5-naphthyridin-2-yl]phenyl]acetamide]	37 nM	37.6 nM	30000 nM	150 nM	151 nM				
CC(C)(O)c1ccc(-c2ccnc3ccc(-c4ccnc(N5C[C@H](O)[C@@H](O)C5)c4)nc23)cn1 [Compound 28, (3S,4S)-1-[4-[8-[6-(2-Hydroxypropan-2-yl)pyridin-3-yl]-1,5-naphthyridin-2-yl]pyridin-2-yl]pyrrolidine-3,4-diol]						43 nM	42.9 nM	20 µM (≈ 8.87 µg/mL)	IC50 [3, 13]: 52.7 nM; IC50 [3, 14]: 53 nM; IC50 ([2]; one biological replicate): > 50000 nM
CC(C)(O)c1ccc(-c2ccnc3ccc(-c4cccc(CS(C)(=O)=O)c4)nc23)cn1 [Compound 29, 2-[5-[6-[3-(Methylsulfonylmethyl)phenyl]-1,5-naphthyridin-4-yl]pyridin-2-yl]propan-2-ol]	46 nM	46.4 nM	> 50000 nM	1600 nM	1630 nM				
CC(C)(O)c1cccc(-c2ccc3nccc(-c4ccc(C(C)(C)O)nc4)c3n2)c1 [Compound 30, 2-[3-[8-[6-(2-Hydroxypropan-2-yl)pyridin-3-yl]-1,5-naphthyridin-2-yl]phenyl]propan-2-ol]						100 nM	105 nM	55 µM (≈ 22 µg/mL)	IC50 [3, 13]: 34.5 nM; IC50 [3, 14]: 34 nM; IC50 ([2]; one biological replicate): 3000 nM
CC(C)(O)c1ccc(-c2ccnc3ccc(-c4cccc(C(C)(C)O)c4F)nc23)cn1 [Compound 31, 2-[2-Fluoro-3-[8-[6-(2-hydroxypropan-2-yl)pyridin-3-yl]-1,5-naphthyridin-2-yl]phenyl]propan-2-ol]						2300 nM	2360 nM	10 µM (≈ 4.17 µg/mL)	IC50 [3, 13]: 472 nM; IC50 [3, 14]: 470 nM
CC(C)(O)c1ccc(-c2ccnc3ccc(-c4ccc(C(F)(F)F)nc4)nc23)cn1 [Compound 32, 2-[5-[6-[6-(Trifluoromethyl)pyridin-3-yl]-1,5-naphthyridin-4-yl]pyridin-2-yl]propan-2-ol]						210 nM	207 nM	< 5 µM	
Cn1cc(-c2ccnc3ccc(-c4cccc(S(C)(=O)=O)c4)nc23)ccc1=O [Compound 33, 1-Methyl-5-[6-(3-methylsulfonylphenyl)-1,5-naphthyridin-4-yl]pyridin-2-one]						96 nM	95.6 nM	55 µM (≈ 21.5 µg/mL)	
Cn1ccc(-c2ccnc3ccc(-c4cccc(S(C)(=O)=O)c4)nc23)cc1=O [Compound 34, 1-Methyl-4-[6-(3-methylsulfonylphenyl)-1,5-naphthyridin-4-yl]pyridin-2-one]		173 nM	44000 nM	340 nM	338 nM			175 µM (≈ 68.5 µg/mL)	
CS(=O)(=O)c1cccc(-c2ccc3nccc(-c4ccn(CCO)c(=O)c4)c3n2)c1 [Compound 35, 1-(2-Hydroxyethyl)-4-[6-(3-methylsulfonylphenyl)-1,5-naphthyridin-4-yl]pyridin-2-one]	200 nM	200 nM	> 50000 nM					195 µM (≈ 82.2 µg/mL)	
CS(=O)(=O)c1cccc(-c2ccc3nccc(-c4cccc(C(=O)N5CCC(O)C5)c4)c3n2)c1 (centres unmarked) [Compound 36, [3-[6-(3-Methylsulfonylphenyl)-1,5-naphthyridin-4-yl]phenyl]-(3-hydroxypyrrolidin-1-yl)methanone]	220 nM	217 nM	33000 nM	240 nM	244 nM			50 µM (≈ 23.7 µg/mL)	
CS(=O)(=O)c1cccc(-c2ccc3nccc(-c4ccc(C(=O)N5CC[C@H](N)C5)cc4)c3n2)c1 [Compound 38, [(3S)-3-Aminopyrrolidin-1-yl]-[4-[6-(3-methylsulfonylphenyl)-1,5-naphthyridin-4-yl]phenyl]methanone]						48 nM	48.6 nM	180 µM (≈ 85.1 µg/mL)	IC50 ([2]; one biological replicate): 28000 nM
CC[C@H]1CN2CCc3cc(OC)c(OC)cc3[C@@H]2C[C@@H]1C[C@H]1NCCc2cc(OC)c(OC)cc21 [Emetine, reference compound]			< 3 nM						
